# Measurements taken from US20120040946A1 (APEX LABORATORIES PRIVATE LIMITED, priority 2009, published 2012).
# Structures can show the parent of a compound that is named as a salt.
# Assays:
# Staphylococcus aureus = assay: In vitro antimicrobial zone of inhibition study; assay type: cell-based
# From the text: The antimicrobial/antibacterial activity of the product is confirmed by the in vitro Antimicrobial Zone of Inhibition studies for the product against Staphylococcusaureus. The details of the studies are detailed below in Table 16.
# [1] = Stability analysis of raw API (3 months, open & closed Petri dish) by stability indicating HPLC method and titration method; assay type: physicochemical; details: for Fusidic Acid Assay (%) HPLC / Fusidic Acid Assay (%) Titration / Percentage Drop (%) HPLC / Percentage Drop (%) Titration / Sodium Fusidate Assay(%) HPLC / Sodium Fusidate Assay(%) Titration / Percentage (%) HPLC / Percentage (%) Titration: after 3 months; for Percentage Drop (%) HPLC / Percentage Drop (%) Titration: Fusidic acid API; for Percentage (%) HPLC / Percentage (%) Titration: Sodium Fusidate API
# bacterial cells = details: in vitro; cited from earlier work
# [2] = 20° C.; cited from earlier work
# gram-negative bacteria = details: cited from earlier work
# [3] = at the time of receipt of the API from the supplier
structure (smiles),measurement,setting,value
CC1(C)S[C@@H]2[C@H](NC(=O)Cc3ccccc3)C(=O)N2[C@H]1C(=O)O [Penicillin G],Inference,Staphylococcus aureus; Dose 10 Units,Resistant
same,Zone Diameter Range (mm),Staphylococcus aureus; Dose 10 Units,21-27 mm
"CC(=O)O[C@H]1C[C@@]2(C)[C@@H](C[C@@H](O)[C@H]3[C@@]4(C)CC[C@@H](O)[C@@H](C)[C@@H]4CC[C@@]32C)/C1=C(\CCC=C(C)C)C(=O)O [Fusidic Acid, Fusidic acid]",Inference,Staphylococcus aureus; Dose 10 mcg,Sensitive
same,Zone Diameter Range (mm),Staphylococcus aureus; Dose 10 mcg,21-33 mm
same,Inference,Staphylococcus aureus; Dose 20 mcg,Sensitive
same,Zone Diameter Range (mm),Staphylococcus aureus; Dose 20 mcg,20-30 mm
same,Inference,Staphylococcus aureus; Dose 50 mcg,Sensitive
same,Zone Diameter Range (mm),Staphylococcus aureus; Dose 50 mcg,25-32 mm
same,Fusidic Acid Assay (%) HPLC,[1]; 45° C. (Closed),92.12%
same,Fusidic Acid Assay (%) Titration,[1]; 45° C. (Closed),99.10%
same,Fusidic Acid Assay (%) HPLC,[1]; 45° C. (Open),89.52%
same,Fusidic Acid Assay (%) Titration,[1]; 45° C. (Open),98.52%
same,loss in 3 Months,[1]; 45° C. (open condition),about 11%
same,Percentage Drop (%) HPLC,[1]; 45° C. (Closed),8.48%
same,Percentage Drop (%) Titration,[1]; 45° C. (Closed),1.50%
same,Percentage Drop (%) HPLC,[1]; 45° C. (Open),11.08%
same,Percentage Drop (%) Titration,[1]; 45° C. (Open),2.08%
same,Percentage Drop (%) HPLC,[1]; RT (Closed),6.23%
same,Percentage Drop (%) Titration,[1]; RT (Closed),1.58%
same,Percentage Drop (%) HPLC,[1]; RT (Open),7.67%
same,Percentage Drop (%) Titration,[1]; RT (Open),1.39%
same,Fusidic Acid Assay (%) HPLC,[1]; RT (Closed),94.37%
same,Fusidic Acid Assay (%) Titration,[1]; RT (Closed),99.02%
same,Fusidic Acid Assay (%) HPLC,[1]; RT (Open),92.93%
same,Fusidic Acid Assay (%) Titration,[1]; RT (Open),99.21%
same,Fusidic Acid Initial (%),[1]; [3],100.6%
same,loss in 3 Months,[1]; room temperature (open condition),about 7.7%
"CC(=O)O[C@H]1C[C@@]2(C)[C@@H](C[C@@H](O)[C@H]3[C@@]4(C)CC[C@@H](O)[C@@H](C)[C@@H]4CC[C@@]32C)/C1=C(\CCC=C(C)C)C(=O)O [Sodium Fusidate, 3μ,11μ,16β-Trihydroxy 29-nor-8μ, 9β, 13μ, 14β-dammara-17(20) [10,21-cis], 24-dien-21-oic acid 16-acetate, sodium salt]",time DNA synthesis continues after contact,bacterial cells,45 min
same,time until bacterial cells stop dividing after contact with the antibiotic,bacterial cells,≤ 2 min
same,solubility in water,[2],soluble in one part of water
same,activity against gram-negative bacteria,gram-negative bacteria,virtually inactive
same,Sodium Fusidate Assay(%) HPLC,[1]; 45° C. (Closed),92.96%
same,Sodium Fusidate Assay(%) Titration,[1]; 45° C. (Closed),97.16%
same,Sodium Fusidate Assay(%) HPLC,[1]; 45° C. (Open),92.65%
same,Sodium Fusidate Assay(%) Titration,[1]; 45° C. (Open),97.07%
same,loss in 3 Months,"[1]; 45° C. (open condition), sodium salt",about 6%
same,Sodium Fusidate Assay(%) HPLC,[1]; RT (Closed),97.67%
same,Sodium Fusidate Assay(%) Titration,[1]; RT (Closed),98.85%
same,Sodium Fusidate Assay(%) HPLC,[1]; RT (Open),96.25%
same,Sodium Fusidate Assay(%) Titration,[1]; RT (Open),97.71%
same,Percentage (%) HPLC,[1]; 45° C. (Closed),5.74%
same,Percentage (%) Titration,[1]; 45° C. (Closed),1.54%
same,Percentage (%) HPLC,[1]; 45° C. (Open),6.05%
same,Percentage (%) Titration,[1]; 45° C. (Open),1.63%
same,Percentage (%) HPLC,[1]; RT (Closed),1.03%
same,Percentage (%) Titration,[1]; RT (Closed),−0.15%
same,Percentage (%) HPLC,[1]; RT (Open),2.45%
same,Percentage (%) Titration,[1]; RT (Open),0.99%
same,stability as an API compared with Fusidic acid,[1]; Tables 1 and 2,more stable than Fusidic acid
same,Sodium Fusidate Initial (%),[1]; [3],98.7%
same,loss in 3 Months,"[1]; room temperature (open condition), sodium salt",about 2.5%
